{"source": "patent US3937838A", "about": "“Orally active bronchospasmolytic compounds and their preparation” (priority 1966, dated 1976)", "key": {"[1]": {"tested_on": "isolated guinea pig auricle", "test": "Dual bath preparation, effect on left auricle (Example 8a)", "description": "The left auricle was dissected out and mounted together with spirally-cut trachea from the same animal in a 100 ml bath in Kreb's solution (37°C.) well aereated with a mixture of oxygen (95%) and carbon dioxide (5%). The auricle was electrically stimulated with square wave pulses from a Techtronic Stimulator (voltage 2-4; duration: 10 m sec; frequency 1 per second). This is, in general, the same procedure described above in Example 5c.\nUsing the dual bath preparation, tests were made of the effect on the trachea and auricle of KWD2025 (of the present invention) and of the known drugs KWD2109 and epinephrine. The drug to be tested was added to the bath in the predetermined amount and allowed to act upon the organs for 10 minutes."}, "[2]": {"tested_on": "bronchospasm induced by histamine aerosol", "test": "Protecting effect against histamine aerosol in intact guinea pigs (Example 7c)", "format": "in vivo, guinea pig", "conditions": "for ED50: Cavia porcellus, m ± s.e., read-out: ED50 (protecting 50 per cent of the animals for more than 4 minutes)", "description": "The compounds KWD2109 and KWD2025 have been compared in preventing bronchospasm induced by histamine aerosol in guinea pigs.\nThe drug was injected intraperitoneally 15 minutes (Table 2) or administered orally 30 minutes (Table 3) before histamine treatment. The dose of the drugs protecting 50 per cent of the animals for more than 4 minutes is denoted \"ED50\". In untreated animals only 1-2 percent will withstand the histamine aerosol for more than 4 minutes.\nTo study the duration of the effect, 2 mg/kg was administered orally to intact guinea pigs at different time intervals before the histamine treatment. Two series each including eleven groups of six animals was studied. The groups were tested in histamine aerosol 10, 20, 30, 40, 50, 60, 120, 180, 240, 300 and 360 minutes after the administration of the compound. The per cent of animals in each group protected more than 4 minutes and more than 10 minutes was determined."}, "[3]": {"tested_on": "isolated guinea pig trachea", "test": "Bronchospasmolytic effect in vitro, isolated guinea pig trachea (Example 7a)", "conditions": "Table 1, six experiments", "description": "The trachea from a guinea pig was dissected out and spirally out. It was mounted in a water-jacketed bath (37°C.) in Kreb's solution and aerated with oxygen (95%) and carbon dioxide (5%). Pilocarpine (1 μg/ml) was added. The load was about 2 g and the relaxation was recorded by means of a Grass force displacement transducer and a Grass polygraph model 5. The compound KWD2109 was tested on six preparations in which epinephrine was used as reference."}, "[4]": {"tested_on": "isolated guinea pig heart", "test": "Effect on isolated guinea pig heart, Langendorff (Example 7d)", "description": "The isolated guinea pig heart was perfused according to Langendorff. The method used is described by Anden et al. (Acta. Pharmacol. et Toxicol. 21, 247, 1964). Contractions in the heart were recorded by means of a force displacement transducer and aa Grass polygraph Model 7. Epinephrine was used as reference. KWD2109 and KWD2025 were tested on the same preparation. The comparisons of effects were based on dose for 50 percent increase in chronotropic effect and 10 percent increase in inotropic effect."}, "heart rate": {"tested_on": "heart rate", "test": "Tests on anesthetized cat, heart rate with bronchospasmolytic effect (Example 8b)", "format": "in vivo", "from_the_text": "The relative bronchospasmolytic and cardiovascular effects of compounds can be tested in the method of Konzett & Rossler (see Example 5b above). As has already been described, the test animal is force-ventilated and the effect of various compounds in controlling histamine-induced bronchoconstriction, as reflected by overflow of the forced ventilation in excess of lung capacity, is used as a measure of the bronchospasmolytic effect. Concurrently in the same animal, changes in heart rate and arterial mean pressure can be simultaneously recorded.\nIn carrying out this procedure, bronchoconstriction in the test animal is induced by injection of histamine. The ability of KWD2025 and KWD2109 to control the histamine-inducred bronchoconstriction is measured by injecting the test compound 3 minutes before injection of […], and before injection of histamine, the effect of the test compound on the heart rate is recorded."}}, "note": "Where two headings read alike, the source gives them in different places."}
{"smiles": "Oc1ccc(C(O)CNC2CCC2)cc1O", "note": "(stereo not drawn) [KWD2109, 1-(3',4'-dihydroxyphenyl)-2-(cyclobutylamino)-ethanol]", "values": [{"measurement": "effect on auricle relative to epinephrine at doses with same effect on trachea", "setting": "[1]; equi-effective doses on trachea", "value": "of the same order as that of epinephrine"}, {"measurement": "effect on force of contraction in auricle in concentrations relaxing the trachea", "setting": "[1]; same bath", "value": "increased the force of contraction in the auricle in concentrations where it relaxed the trachea"}, {"measurement": "ED50", "setting": "[2]; ip, 0.25 h, i.p., 15 minutes before histamine-aerosol", "value": "0.17 ± 0.02", "unit": "mg/kg"}, {"measurement": "ED50", "setting": "[2]; po, 0.5 h, peroral, 30 minutes before histamine-aerosol", "value": "0.55 ± 0.14", "unit": "mg/kg"}, {"measurement": "protecting activity relative to KWD2025", "setting": "[2]; intraperitoneal", "value": 3.5, "unit": "times"}, {"measurement": "protecting activity relative to KWD2025", "setting": "[2]; oral", "value": 3.1, "unit": "times"}, {"measurement": "bronchospasmolytic activity relative to KWD2025 after intraperitoneal and oral administration", "setting": "[2]; summary b256", "value": "about 3 times"}, {"measurement": "bronchospasmolytic effect x epinephrine", "setting": "[3]", "value": "8.6 ± 1.7", "unit": "times"}, {"measurement": "therapeutic index, bronchospasmolytic effect over effect on the heart (inotropic)", "setting": "[4]; KWD2025 given index 1.0", "value": 0.083}, {"measurement": "effect on force x epinephrine", "setting": "[4]; dose for 10 percent increase in inotropic effect, Table 5", "value": "5.5 ± 3.2"}, {"measurement": "effect on heart rate x epinephrine", "setting": "[4]; dose for 50 percent increase in chronotropic effect, Table 4", "value": "11.8 ± 6.5"}, {"measurement": "effect on heart rate at equal bronchospasmolytically effective doses", "setting": "heart rate", "value": "more pronounced effect on the heart rate than did KWD2025"}]}
